Source: patent US12629364B2, “Methods of treating cancers overexpressing CARM1 with EZH2 inhibitors and platinum-based antineoplastic drugs” (The Wistar Institute of Anatomy and Biology, priority 2016, dated 2026)

Key:
EZH2 = target: T1, EZH2 (Homo sapiens, UniProt Q15910); experiment: H3K27Me3 / EZH2 immunoblot in A1847 cells; type: cell-based; settings: 72 hours, read-out: inhibition of the enzymatic activity of EZH2 as indicated by decrease in H3K27Me3 levels
T1 construct: endogenous in cells; host or cells: A1847 human epithelial ovarian cancer cells
Method: FIG. 32 illustrates that the EZH2 inhibitor GSK 126 decreases H3K27Me3 levels in a dose-dependent manner. A1847 cells were treated with the indicated concentrations of GSK126 for 72 hours and examined for expression of the indicated proteins by immunoblot. Expression of histone H3 and β-actin was used as a loading control.
Small molecules used in the epigenetic screen were obtained from Structural Genomics Consortium or The Wistar Institute Molecular Screening Facility. GSK126 was obtained from Active Biochem or Xcess Biosciences. Antibodies were obtained from: mouse anti-CARM1 (Cell Signaling, Cat. No: 12495, 1:1000 for immunoblotting), goat anti-BAF155 (Santa Cruz, Cat. No: SC9746, 1:1000 for immunoblotting), rabbit anti-methylated R1064 BAF155 (Millipore, Cat. No: ABE1339, 1:1000 for immunoblotting), rabbit anti-EZH2 (Cell Signaling, Cat. No: 5246, 1:1000 for immunoblotting), rabbit anti-cleaved PARP p85 (Promega, Cat. No: G7341, 1:1000 for immunoblotting), mouse anti-Ki67 (Cell Signaling, Cat. No: 9449, 1:500 for IHC), rabbit anti-cleaved caspase 3 (Cell Signaling, Cat. No: 9661, 1:1000 for immunoblotting and 1:50 for IHC), rabbit anti-H3K27Me3 (Cell Signaling, Cat. No: 9733, 1:1000 for immunoblotting and 1:100 for IHC), mouse anti-β-actin (Sigma, Cat. No: A1978, 1:20,000 for immunoblotting), rabbit anti-RNA pol II (Santa Cruz, Cat. No: sc-899). […]

[1] = tested on: promoter regions of the human DAB2, DLC1, NOXA and TIMP3 genes; experiment: ChIP-qPCR at target gene promoters; type: cell-based; settings: A1847 cells
From the text: FIGS. 58 to 61 illustrate the results of a ChIP analysis using anti-EZH2 (FIG. 58), anti-H3K27Me3 (FIG. 59), anti-BAF155 (FIG. 60), or anti-RNA Pol II (FIG. 61) antibodies. An isotype matched IgG was used as a negative control. ChIP products were subjected to qPCR analysis using primers specific for the promoter regions of the human DAB2, DLC1, and NOXA genes. Data is representative of three independent experiments. *p<0.001 compared with IgG controls and #p<0.001 compared with parental controls.
FIGS. 62 to 65 illustrate the results of a ChIP analysis in parental control and CARM1 knockout A1847 cells treated with 10 μM GSK 126 or vehicle controls. The cells were subjected to ChIP analysis using anti-EZH2 (FIG. 62), anti-H3K27Me3 (FIG. 63), anti-BAF155 (FIG. 64), or anti-RNA Pol II (FIG. 65) antibodies. An isotype-matched IgG was used as a negative control. ChIP products were subjected to qPCR analysis using primers specific for the promoter regions of the human TIMP3 genes. Mean of three independent experiments with SEM. *p<0.001 compared with controls.
ChIP was performed as described in Tu et al. Developmental Cell (2011) 21:1077-91. The following antibodies were used to perform ChIP: anti-H3K27Me3 (Cell Signaling, Cat. No: 9733), anti-BAF155 (Santa Cruz, Cat. No: sc-9746), anti-RNA polymerase II (Santa Cruz, Cat. No: sc-899) or anti-EZH2 (Cell Signaling, Cat. No: 5246). An isotype matched IgG was used as a negative control. ChIP DNA was analyzed by quantitative PCR against the promoter of the indicated genes using the following primers: DAB2 Forward: 5′-[…]-3′ (SEQ ID NO: 10) and DAB2 Reverse: 5′-[…]-3′ (SEQ ID NO: 11); DLC1 Forward: 5′-[…]-3′ (SEQ ID NO: 12) and DLC1 Reverse: 5′-[…]-3′ (SEQ ID NO: 13); NOXA Forward: 5′-[…]-3′ (SEQ ID NO: 14) and NOXA Reverse: 5′-[…]-3′ (SEQ ID NO: 15); TIMP3 Forward: 5′-[…]-3′ (SEQ ID NO: 16) and TIMP3 Reverse: 5′-[…]-3′ (SEQ ID NO: 17).

[2] = tested on: tumors formed by CARM1 knockout A1847 cells; experiment: Subcutaneous xenograft, CARM1 knockout A1847 cells; type: in vivo, NSG mice; settings: 50 mg/kg daily
Method: FIGS. 73 to 75 illustrate that EZH2 inhibition suppressed the growth of CARM1-expressing ovarian tumors in vivo. FIG. 73 illustrates images of tumors dissected from control or GSK126 treated mice. CARM1-high A1847 cells were injected subcutaneously into immunocompromised NSG mice (n=5/group). Tumors were allowed to establish for one week before the mice were randomized into two different treatment groups. Mice were treated with vehicle control or GSK126 (50 mg/kg daily) for an additional three weeks. At the end of treatment, the mice were euthanized. Bar=1 cm. FIG. 74 illustrates a difference in tumor size measured as a surrogate for tumor burden from the control and GSK 126 treated mice at the indicated time point. FIG. 75 illustrates a difference in tumor weight measured as a surrogate for tumor burden from control and GSK 126-treated mice. The mice were injected with CARM1 knockout A1847 cells.
The protocols were approved by the Institutional Animal Care and Use Committee (IACUC). 5×10^6 control A1847 or A1847 CARM1 knockout cells were unilaterally injected subcutaneously into 6-8-week old female immunocompromised NSG mice (n=5 per group). […] Tumor size was measured every 3 days for 3 weeks. At end of the experiments, tumors were surgically dissected and tumor burden was calculated based on tumor weight.

T1 sequence (Q15910 whole entry): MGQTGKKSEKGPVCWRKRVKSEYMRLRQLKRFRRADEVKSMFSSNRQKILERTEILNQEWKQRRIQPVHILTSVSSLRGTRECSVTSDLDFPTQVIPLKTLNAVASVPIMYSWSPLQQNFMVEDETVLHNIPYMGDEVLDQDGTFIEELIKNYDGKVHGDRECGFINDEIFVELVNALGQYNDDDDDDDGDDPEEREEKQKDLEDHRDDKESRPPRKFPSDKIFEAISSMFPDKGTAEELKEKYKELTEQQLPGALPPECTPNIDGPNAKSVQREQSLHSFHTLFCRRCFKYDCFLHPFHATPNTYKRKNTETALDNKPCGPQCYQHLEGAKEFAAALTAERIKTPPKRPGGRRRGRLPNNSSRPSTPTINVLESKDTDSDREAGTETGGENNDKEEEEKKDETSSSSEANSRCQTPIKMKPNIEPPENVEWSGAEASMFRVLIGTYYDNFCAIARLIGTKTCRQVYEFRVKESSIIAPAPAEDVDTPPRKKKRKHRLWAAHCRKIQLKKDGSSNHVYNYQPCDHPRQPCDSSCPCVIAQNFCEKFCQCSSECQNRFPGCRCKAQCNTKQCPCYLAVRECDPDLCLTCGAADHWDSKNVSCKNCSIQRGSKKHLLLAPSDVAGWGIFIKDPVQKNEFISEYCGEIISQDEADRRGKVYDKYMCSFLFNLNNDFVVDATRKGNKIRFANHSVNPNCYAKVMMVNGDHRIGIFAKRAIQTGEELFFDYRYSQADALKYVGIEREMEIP
T1 sequence (Q15022 whole entry partner): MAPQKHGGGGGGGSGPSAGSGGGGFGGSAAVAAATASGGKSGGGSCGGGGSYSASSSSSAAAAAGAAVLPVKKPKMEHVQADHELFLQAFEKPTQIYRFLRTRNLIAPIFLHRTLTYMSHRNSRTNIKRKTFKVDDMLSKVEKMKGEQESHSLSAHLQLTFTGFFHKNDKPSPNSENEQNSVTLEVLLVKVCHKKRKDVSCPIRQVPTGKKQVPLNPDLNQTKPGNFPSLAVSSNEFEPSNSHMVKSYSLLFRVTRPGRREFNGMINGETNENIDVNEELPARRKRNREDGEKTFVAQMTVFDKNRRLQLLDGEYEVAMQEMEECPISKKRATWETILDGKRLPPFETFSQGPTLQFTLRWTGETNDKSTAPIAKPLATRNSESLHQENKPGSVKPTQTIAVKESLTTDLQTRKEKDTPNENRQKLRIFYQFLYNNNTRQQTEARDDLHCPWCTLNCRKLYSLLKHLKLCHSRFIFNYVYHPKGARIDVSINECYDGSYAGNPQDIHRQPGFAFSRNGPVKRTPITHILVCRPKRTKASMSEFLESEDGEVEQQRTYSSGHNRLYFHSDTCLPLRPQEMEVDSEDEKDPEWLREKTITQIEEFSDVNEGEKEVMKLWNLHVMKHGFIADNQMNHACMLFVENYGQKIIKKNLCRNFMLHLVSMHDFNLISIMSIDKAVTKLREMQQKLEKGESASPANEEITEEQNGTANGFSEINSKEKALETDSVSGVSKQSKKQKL
T1 sequence (O75530 whole entry partner): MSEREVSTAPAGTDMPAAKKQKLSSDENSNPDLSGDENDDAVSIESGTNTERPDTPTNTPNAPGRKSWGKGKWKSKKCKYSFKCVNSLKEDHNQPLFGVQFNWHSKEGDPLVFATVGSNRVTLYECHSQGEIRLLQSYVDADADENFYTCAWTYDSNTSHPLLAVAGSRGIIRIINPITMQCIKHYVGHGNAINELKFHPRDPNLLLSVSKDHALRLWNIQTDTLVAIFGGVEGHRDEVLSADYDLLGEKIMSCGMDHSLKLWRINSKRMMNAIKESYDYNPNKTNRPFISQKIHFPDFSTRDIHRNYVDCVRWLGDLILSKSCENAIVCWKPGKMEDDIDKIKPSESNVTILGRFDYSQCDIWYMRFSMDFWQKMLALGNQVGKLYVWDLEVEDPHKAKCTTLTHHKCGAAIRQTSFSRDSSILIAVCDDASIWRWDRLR

SMILES: CC[C@H](C)n1cc(C)c2c(C(=O)NCc3c(C)cc(C)[nH]c3=O)cc(-c3ccc(N4CCNCC4)nc3)cc21 [GSK126, (S)-1-(sec-butyl)-N-((4,6-dimethyl-2-oxo-1,2-dihydropyridin-3-yl)methyl)-3-methyl-6-(6-(piperazin-1-yl)pyridin-3-yl)-1H-indole-4-carboxamide]
- inhibition at 10 µM (EZH2): > 95%
- association of BAF155 and Pol II with the TIMP3 promoter ([1]; 10 μM): CARM1 KO but not EZH2 inhibitor GSK 126 treatment decreased the association
- EZH2's association with its target genes ([1]; DAB2, DLC1, NOXA loci): without affecting EZH2's association with its target genes
- H3K27Me3 occupancy of target genes ([1]; DAB2, DLC1, NOXA loci): decreased H3K27Me3 occupancy
- tumor growth [2]: failed to inhibit the growth
